Columns and labels:
MDA-MB-231 cells [1] = assay: TUNEL assay; assay type: cell-based, human; conditions: compared to DMSO treatment
Text: Apoptosis was detected using a Cell Death Detection Fluorescein Kit for TUNEL assay (RiboBio, Guangzhou, China) according to the manufacturer's instructions. […] Signals were detected by fluorescence microscopy. Non-apoptotic cells were visualized under a DAPI (4′,6-diamidino-2-phenylindole) filter.

[2] = test system: non-breast cancer cell lines; assay: CCK8 assay IC50, panel summary; assay type: cell-based; conditions: panel of non-breast cancer cell lines, 72 h
Experimental: (§1) Cell viability was then detected using a CCK8 assay (MedChemExpress, USA) according to the manufacturer's instructions.
(§2) Statistical analyses of all data were performed using GraphPad Prism (version 8.0, Graph Pad Software Inc., San Diego, CA, USA). All the data were analyzed by Student's t-test or one-way ANOVA. The Z-Score was chosen to evaluate the results and experimental deviation. Quantitative data are presented as the mean ± SD. The asterisk (*) denotes statistically significant difference (P < 0.05). IC50 was calculated using a four-parameter fit with variable slope in GraphPad Prism.

[3] = test system: primary breast cancer cells; assay: Intracellular calcium measurement (Fluo-4-AM); assay type: cell-based, human; conditions: thrombin stimulation
[4] = test system: Primary breast tumor cells; assay: CCK8 assay IC50; assay type: cell-based, human; conditions: Homo sapiens, breast cancer, 72 h
Text: (§3) HeLa, MCF-7 and MDA-MB-231 cell lines were purchased from the American Type Culture Collection. MCF-10A, T-47D, PANC-1, A549, HCT-15, Caco-2, SMMC-7721, SH-SY5Y, HUVEC and PC-3 cell lines were obtained from the Chinese Academy of Medical Sciences. MEF was isolated from pregnant mice at 14‒16 days of pregnancy. Primary breast cancer cells were isolated from breast cancer patients. All media including Dulbecco Modified Eagle Medium (DMEM), RPMI 1640 Medium and DMEM/Nutrient Mixture F-12 were supplemented with 10% fetal bovine serum (FBS), 100 units/mL penicillin, and […] streptomycin (Gibco, Waltham, MA, USA). Cells were cultured in a humidified incubator equilibrated with 5% CO2 at 37 °C. Cells were treated for 24-72 h in adherent conditions with compounds from an epigenetic small molecule inhibitor library (L1200, Topscience, Shanghai, China).
as §1
as §2, with “The asterisk (*) denotes statistically significant difference (P < 0.05).” left out

histone deacetylase = assay: Western blot of acetylated histone H3 and acetylated α-tubulin; assay type: cell-based, human; conditions: MDA-MB-231 cells, 100 or 200 nM, 24-72 h
Experimental: Total protein was assessed by sodium dodecyl sulfate-polyacrylamide gel electrophoresis using 10% or 15% gels, followed by immunoblotting with the following antibodies. Anti-glyceraldehyde 3-phosphate dehydrogenase (GAPDH) antibody (AC002) was purchased from ABclonal Technology (Woburn, MA, USA); anti-PLCβ3 antibody (14247) was purchased from Cell Signaling Technology (Danvers, MA, USA); anti-β-actin antibody (ab8226) and anti-histone H3 antibody (ab1791) were purchased from Abcam (Cambridge, UK); anti-ace tubulin antibody (66200-1-lg) was purchased from Proteintech Group (Rosemont, IL, USA); anti-γ-catenin antibody was purchased from BD Biosciences (Franklin Lakes, NJ, USA). The GAPDH and β-actin content were analyzed as the loading control.

MDA-MB-231 cells [5] = assay: RT-qPCR of marker genes; assay type: cell-based, human
Experimental: Reverse transcription was performed using the RevertAid First Strand cDNA Synthesis Kit ([…]) according to the manufacturer's instructions. The primers for the detection of target mRNA are shown in Table S2. β-actin was used as an internal reference. The relative expression of target genes was calculated by the 2^-ΔΔCt method.

MDA-MB-231 cells [6] = assay: Intracellular calcium measurement (Fluo-4-AM); assay type: cell-based, human; conditions: 100 nM or 200 nM for 24 h
Experimental: After treatment, the cells were digested and seeded in 96-well black plates (Corning Costar, Cambridge, MA, USA) and cultured for 20 h. For measurement of [Ca^2+]i, the cells were labeled with Fluo-4-AM in serum-free medium for half an hour at room temperature. After washing with Dulbecco's Phosphate Buffered Saline (D-PBS), cells were overlaid in Hank's balanced salt solution (5.4 mM KCl, 1 mM MgCl2, 20 mM hydroxyethyl piperazineethanesulfonic acid (HEPES), 120 mM NaCl, 10 mM glucose, 0.2 mM Ethylenebis(oxyethylenenitrilo)tetraacetic acid (EGTA)). Continuous fluorescence intensity was detected after thrombin was added as a calcium agonist by an automated sampler. Response over baseline was assessed as a relative measure of [Ca^2+]i.
As previously stated, studies have shown that the Ca^2+ signals can modulate cancer progression by regulating migration, proliferation, cell stress, and apoptosis.

MDA-MB-231 cells [7] = assay: High-content epigenetic inhibitor screen, quantification of living cells; assay type: cell-based, human; conditions: 72 h
Text: as §3, §2
To identify potential anti-tumor inhibitors, we screened an epigenetic small molecule inhibitor library for anti-tumor activity in breast cancer cells. […] The selection strategy mainly comprised three stages, in which different concentrations (high to low) of inhibitors screened with a high-content analysis instrument were identified using cancer cell lines in a 96-well plate format (Figure 1A). For the first step, we treated cells with a high concentration of compounds to exclude compounds ineffective in killing cancer cells. MDA-MB-231 cells, a human breast cancer cell line, were treated with 167 epigenetic compounds (30 μM each) for 48 h, and then analyzed by high-content analysis, where changes in cell morphology relative to the control (dimethyl sulfoxide, DMSO) would indicate modulation of cancer cells by compound treatment. […] At the second step, we treated the cells with the 60 compounds at a median concentration (3 μM) for 72 h to screen for inhibitors that can kill cancer cells with high efficiency.

MEF = assay: CCK8 assay IC50; assay type: cell-based, mouse; conditions: Mus musculus, normal cells, 72 h
Text: as §3, §1
as §2, with “The asterisk (*) denotes statistically significant difference (P < 0.05).” left out

## CN(C)Cc1c(C(=O)NCCOc2ccc(C(=O)NO)cc2)oc2ccccc12 [PCI-24781]
MDA-MB-231 cells [1]
  apoptosis (TUNEL): higher rate of apoptosis
[2]
  IC50: > 1 µM
[3]
  amplitude of [Ca^2+]i oscillations: significant decrease in the amplitude
[4]
  IC50: 0.876 µM
Histone deacetylase
  acetylated histone H3 and acetylated α-tubulin levels: time-dependent and dose-dependent accumulation of acetylated histone H3 (H3) and acetylated α-tubulin
MDA-MB-231 cells [5]
  expression of Ca^2+-related pathway markers (SYT1, SYTL2, SYT7, SYT12, TC2N, MMP1, MMP3, PLCβ3): downregulated
  expression of MMP2, MMP15, and MMP16: significantly inhibited
  expression of epithelial markers (α-catenin, γ-catenin): significant upregulation
  mRNA levels of mesenchymal/NE markers (N-cadherin, vimentin, fibronectin, Syn, ASH1, NCAM1): either inhibited or unaffected
MDA-MB-231 cells [6]
  influx of intracellular calcium ions induced by thrombin, ionomycin, and carbachol: completely inhibited
MDA-MB-231 cells [7]; 0.15 μM
  cell death: ~ 20%
MDA-MB-231 cells [7]; 3 μM
  effect on cell survival: discernible effects on cell survival
MEF
  IC50: 15 µM

Source: PMC7797697 (Theranostics, 2021)
